Laboratory results from patent publication US9115380B2, “Kits and methods for generating 5′ capped RNA” (priority 2006, dated 2015).
Several values for one entry are separate records, joined by “and”; a condition that tells them apart may be missing. Equal entries are not always repeated. Entries after “also recorded” stand apart in the source; their conditions may differ. Where two headings read alike, the source gives them in different places.

Key:
vaccinia capping enzyme = vaccinia capping enzyme (Vaccinia virus, UniProt P04298); format: biochemical
[1] = system: tobacco acid pyrophosphatase (TAP); format: biochemical
wheat germ lysate = format: biochemical
[2] = system: rabbit reticulocyte lysate; format: biochemical
[3] = target: vaccinia mRNA (nucleoside-2′-O—) methyltransferase (Vaccinia virus, UniProt P07617); format: biochemical
BDCM cells = format: cell-based; conditions: for relative translation efficiency: poly(A)-tailed Renilla luciferase RNA
[4] = target: RNA guanyltransferase activity of the vaccinia capping enzyme system (Vaccinia virus, UniProt P04298); conditions: cited from earlier work
[5] = target: vaccinia capping enzyme (guanine 7-methyltransferase activity) (Vaccinia virus, UniProt P04298); format: biochemical
HeLa cells = format: cell-based; conditions: GTP-capped poly(A)-tailed Renilla luciferase RNA
[6] = wheat germ lysate, poly(A)-tailed Renilla luciferase RNA, cap 0 structure, GTP-capped cap 0 RNA = 100%
[7] = wheat germ lysate, poly(A)-tailed Renilla luciferase RNA, cap I structure
[8] = rabbit reticulocyte lysate, poly(A)-tailed Renilla luciferase RNA, cap 0 structure, GTP-capped cap 0 RNA = 100%
[9] = rabbit reticulocyte lysate, poly(A)-tailed Renilla luciferase RNA, cap I structure
[10] = rabbit reticulocyte lysate, poly(A)-tailed firefly luciferase RNA, cap I structure
[11] = cap 0 structure, GTP-capped cap 0 RNA = 100%
[12] = cap I structure, GTP-capped RNA = 100%
[13] = capped RNA prepared per Method 6

Nc1nc2c(ncn2[C@H]2CC[C@@H](COP(=O)(O)OP(=O)(O)OP(=O)(O)O)O2)c(=O)[nH]1 [2′,3′-ddGTP, 2′,3′-dideoxy-GTP, reference compound]
substrate for the capping enzyme system (51-base primary RNA transcript converted into 52-base capped RNA) (vaccinia capping enzyme): not substrates for the capping enzyme system; also recorded: not a substrate for the capping enzyme system

Nc1nc2c(ncn2[C@@H]2O[C@H](COP(=O)(O)OP(=O)(O)OP(=O)(O)O)[C@@H](O)[C@H]2F)c(=O)[nH]1 [2′-F-dGTP, 2′-fluoro-2′-deoxyguanosine-5′-triphosphate]
removal of the cap nucleotide by tobacco acid pyrophosphatase (51-base band on PAGE) ([1]; capped RNA prepared per Method 6 except in the absence of S-adenosyl-L-methionine): 51-base band was observed
relative translation efficiency (wheat germ lysate; [6]): 53%
relative translation efficiency (wheat germ lysate; [7]): 61%
average relative translation efficiency [2, 8]: 55%
average relative translation efficiency [2, 9]: 107%
average relative translation efficiency [2, 10]: 133%
methylation of the 2′-hydroxyl of the 5′-penultimate nucleotide by mRNA (nucleoside-2′-O—) methyltransferase [3]: 52-base radioactive band was observed

CO[C@@H]1[C@H](O)[C@@H](COP(=O)(O)OP(=O)(O)OP(=O)(O)O)O[C@H]1n1cnc2c(=O)[nH]c(N)nc21 [2′-OMe-GTP, 2′-O-methylguanosine-5′-triphosphate]
removal of the cap nucleotide by tobacco acid pyrophosphatase (51-base band on PAGE) [1]: 51-base band was observed
relative translation efficiency (wheat germ lysate): 36% and 47%
average relative translation efficiency [2]: 132% and 97% and 170%
methylation of the 2′-hydroxyl of the 5′-penultimate nucleotide by mRNA (nucleoside-2′-O—) methyltransferase [3]: 52-base radioactive band was observed

Nc1nc2c(ncn2[C@@H]2O[C@H](COP(=O)(O)OP(=O)(O)OP(=O)(O)O)[C@@H](O)[C@H]2N)c(=O)[nH]1 [2′-amino-dGTP, 2′-amino-2′-deoxyguanosine-5′-triphosphate]
conversion of 51-base primary RNA transcript to 52-base capped RNA (in words) (vaccinia capping enzyme): quantitatively converted
relative translation efficiency (BDCM cells; [11]): 150%
relative translation efficiency (BDCM cells; [12]): 177%
removal of the cap nucleotide by tobacco acid pyrophosphatase (51-base band on PAGE) [1, 13]: 51-base band was observed
relative translation efficiency (wheat germ lysate; [6]): 90%
relative translation efficiency (wheat germ lysate; [7]): 110%
average relative translation efficiency [2, 8]: 148%
average relative translation efficiency [2, 9]: 144%
average relative translation efficiency [2, 10]: 100%
methylation of the 2′-hydroxyl of the 5′-penultimate nucleotide by mRNA (nucleoside-2′-O—) methyltransferase [3]: 52-base radioactive band was observed

[N-]=[N+]=N[C@@H]1[C@H](O)[C@@H](COP(=O)(O)OP(=O)(O)OP(=O)(O)O)O[C@H]1n1cnc2c(=O)[nH]c(N)nc21 [2′-azido-dGTP, 2′-azido-2′-deoxyguanosine-5′-triphosphate]
relative translation efficiency (wheat germ lysate; [6]): 41%
relative translation efficiency (wheat germ lysate; [7]): 42%
average relative translation efficiency [2, 8]: 99%
average relative translation efficiency [2, 9]: 79%
average relative translation efficiency [2, 10]: 107%
methylation of the 2′-hydroxyl of the 5′-penultimate nucleotide by mRNA (nucleoside-2′-O—) methyltransferase [3]: 52-base radioactive band was observed

CO[C@H]1[C@@H](O)[C@H](n2cnc3c(=O)[nH]c(N)nc32)O[C@@H]1COP(=O)(O)OP(=O)(O)OP(=O)(O)O [3′-OMe-GTP, 3′-O-methylguanosine-5′-triphosphate]
conversion of 51-base primary RNA transcript to 52-base capped RNA (in words) (vaccinia capping enzyme): quantitatively converted
removal of the cap nucleotide by tobacco acid pyrophosphatase (51-base band on PAGE) [1, 13]: 51-base band was observed
relative translation efficiency (wheat germ lysate; [6]): 39%
relative translation efficiency (wheat germ lysate; [7]): 43%
average relative translation efficiency [2, 8]: 82%
average relative translation efficiency [2, 9]: 84%
average relative translation efficiency [2, 10]: 137%
methylation of the 2′-hydroxyl of the 5′-penultimate nucleotide by mRNA (nucleoside-2′-O—) methyltransferase [3]: 52-base radioactive band was observed

Nc1nc2c(ncn2[C@H]2C[C@H](N)[C@@H](COP(=O)(O)OP(=O)(O)OP(=O)(O)O)O2)c(=O)[nH]1 [3′-amino-2′,3′-ddGTP, 3′-amino-2′,3′-dideoxyguanosine-5′-triphosphate]
substrate for the capping enzyme system (51-base primary RNA transcript converted into 52-base capped RNA) (vaccinia capping enzyme): substrates for the capping enzyme system

[N-]=[N+]=N[C@H]1C[C@H](n2cnc3c(=O)[nH]c(N)nc32)O[C@@H]1COP(=O)(O)OP(=O)(O)OP(=O)(O)O [3′-azido-2′,3′-ddGTP, 3′-azido-2′,3′-dideoxyguanosine-5′-triphosphate]
substrate for the capping enzyme system (51-base primary RNA transcript converted into 52-base capped RNA) (vaccinia capping enzyme): substrates for the capping enzyme system

Nc1nc2c(ncn2[C@@H]2O[C@H](COP(=O)(O)OP(=O)(O)OP(=O)(O)O)C[C@H]2O)c(=O)[nH]1 [3′-dGTP, 3′-deoxyguanosine-5′-triphosphate]
relative translation efficiency (wheat germ lysate; [7]): 31%
average relative translation efficiency [2, 8]: 80%
average relative translation efficiency [2, 9]: 64%
average relative translation efficiency [2, 10]: 98%

Nc1nc2c(ccn2[C@@H]2O[C@H](COP(=O)(O)OP(=O)(O)OP(=O)(O)O)[C@@H](O)[C@H]2O)c(=O)[nH]1 [7-deaza-GTP, reference compound]
substrate for the capping enzyme system (51-base primary RNA transcript converted into 52-base capped RNA) (vaccinia capping enzyme): not substrates for the capping enzyme system

Nc1ncnc2c1ncn2[C@@H]1O[C@H](COP(=O)(O)OP(=O)(O)OP(=O)(O)O)[C@@H](O)[C@H]1O [ATP, reference compound]
substrate for the capping enzyme system (51-base primary RNA transcript converted into 52-base capped RNA) (vaccinia capping enzyme): not substrates for the capping enzyme system
use in place of GTP in an in vitro capping reaction [4]: could not be used in place of GTP

Nc1ccn([C@@H]2O[C@H](COP(=O)(O)OP(=O)(O)OP(=O)(O)O)[C@@H](O)[C@H]2O)c(=O)n1 [CTP]
use in place of GTP in an in vitro capping reaction [4]: could not be used in place of GTP

Nc1nc2c(ncn2[C@@H]2O[C@H](COP(=O)(O)OP(=O)(O)O)[C@@H](O)[C@H]2O)c(=O)[nH]1 [GDP]
use in place of GTP in an in vitro capping reaction [4]: could not be used in place of GTP

Nc1nc2c(ncn2[C@@H]2O[C@H](COP(=O)(O)O)[C@@H](O)[C@H]2O)c(=O)[nH]1 [GMP]
use in place of GTP in an in vitro capping reaction [4]: could not be used in place of GTP

Nc1nc2c(ncn2[C@@H]2O[C@H](COP(=O)(O)OP(=O)(O)OP(=O)(O)O)[C@@H](O)[C@H]2O)c(=O)[nH]1 [GTP, reference compound]
conversion of 51-base primary RNA transcript to 52-base capped RNA (in words) (vaccinia capping enzyme): quantitatively converted
conversion of 51-base primary RNA transcript into 52-base capped RNA (in words) [5]: quantitatively converted
methylation of the N^7 position of the cap nucleotide (radioactive methyl group in 52-base band) [5]: contained the radioactive methyl group
RLUs with cap I structure relative to cap 0 structure (BDCM cells; GTP-capped poly(A)-tailed Renilla luciferase RNA): about 1.3 times higher
RLUs with cap I structure relative to cap 0 structure (HeLa cells): about 2.2 times higher

O=c1[nH]cnc2c1ncn2[C@@H]1O[C@H](COP(=O)(O)OP(=O)(O)OP(=O)(O)O)[C@@H](O)[C@H]1O [ITP]
use in place of GTP in an in vitro capping reaction [4]: could not be used in place of GTP

Cn1c(N)nc2c(ncn2[C@@H]2O[C@H](COP(=O)(O)OP(=O)(O)OP(=O)(O)O)[C@@H](O)[C@H]2O)c1=O [N^1-methyl-GTP, N^1-methylguanosine-5′-triphosphate]
conversion of 51-base primary RNA transcript to 52-base capped RNA (in words) (vaccinia capping enzyme): quantitatively converted
substrate for the capping enzyme system (51-base primary RNA transcript converted into 52-base capped RNA) (vaccinia capping enzyme): substrates for the capping enzyme system
methylation of the N^7 position of the cap nucleotide (radioactive methyl group in 52-base band) [5]: did not contain any radioactivity
relative translation efficiency (wheat germ lysate): 31%

Cn1c[n+]([C@@H]2O[C@H](COP(=O)(O)OP(=O)([O-])OP(=O)(O)O)[C@@H](O)[C@H]2O)c2nc(N)[nH]c(=O)c21 [N^7-methyl-GTP, reference compound]
substrate for the capping enzyme system (51-base primary RNA transcript converted into 52-base capped RNA) (vaccinia capping enzyme): not substrates for the capping enzyme system
use in place of GTP in an in vitro capping reaction [4]: could not be used in place of GTP

COc1nc(N)nc2c1ncn2[C@@H]1O[C@H](COP(=O)(O)OP(=O)(O)OP(=O)(O)O)[C@@H](O)[C@H]1O [O^6-methyl-GTP, O^6-methylguanosine-5′-triphosphate]
51-base primary RNA transcript converted into 52-base capped RNA (vaccinia capping enzyme): approximately 70%
substrate for the capping enzyme system (51-base primary RNA transcript converted into 52-base capped RNA) (vaccinia capping enzyme): substrates for the capping enzyme system
conversion of 51-base primary RNA transcript into 52-base capped RNA (in words) [5]: quantitatively converted
methylation of the N^7 position of the cap nucleotide (radioactive methyl group in 52-base band) [5]: catalyzed formation of N^7-methylated capped RNA
relative translation efficiency (BDCM cells; [11]): 115%
relative translation efficiency (BDCM cells; [12]): 117%
relative translation efficiency (wheat germ lysate; [6]): 80%
relative translation efficiency (wheat germ lysate; [7]): 59%
average relative translation efficiency [2, 8]: 167%
average relative translation efficiency [2, 9]: 122%
average relative translation efficiency [2, 10]: 97%

O=c1ccn([C@@H]2O[C@H](COP(=O)(O)OP(=O)(O)OP(=O)(O)O)[C@@H](O)[C@H]2O)c(=O)[nH]1 [UTP]
use in place of GTP in an in vitro capping reaction [4]: could not be used in place of GTP

CO[C@H]1[C@@H](O)[C@H]([n+]2cn(C)c3c(=O)[nH]c(N)nc32)O[C@@H]1COP(=O)([O-])OP(=O)(O)OP(=O)(O)OC[C@H]1O[C@@H](n2cnc3c(=O)[nH]c(N)nc32)[C@H](O)[C@@H]1O [m2^7,3′-OGpppG, reference compound]
relative translation efficiency (BDCM cells; [11]): 130%
relative translation efficiency (BDCM cells; [12]): 102%
